Reference: patent publication US20260262643A1, “HERBICIDAL BENZOXAZINES” (FMC CORPORATION, priority 2022, published 2026)

Assays:
barnyardgrass [1] = test: Test C preemergence; format: in vivo, Echinochloa crusgalli; details: for Barnyardgrass plant response rating: preemergence, 0 to 100 scale (0 no effect, 100 complete control)
In short: (§1)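 Soil-applied (pre) and foliar (post, 1–2 leaf, 2–10 cm) sprays; surfactant-containing non-phytotoxic solvent vehicle; loam/sand substrate. Readout: visual % control at 10 d, greenhouse, versus untreated.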

blackgrass [2] = test: Test C preemergence; format: in vivo, Alopecurus myosuroides; details: for Blackgrass plant response rating: preemergence, 0 to 100 scale (0 no effect, 100 complete control)
In short: as §1

corn [3] = test: Test C preemergence; format: in vivo, Zea mays; details: for Corn plant response rating: preemergence, 0 to 100 scale (0 no effect, 100 complete control)
In short: as §1

foxtail, giant [4] = test: Test C preemergence; format: in vivo, Setaria faberi; details: for Foxtail, Giant plant response rating: preemergence, 0 to 100 scale (0 no effect, 100 complete control)
In short: as §1

kochia [5] = test: Test C preemergence; format: in vivo, Bassia scoparia; details: for Kochia plant response rating: preemergence, 0 to 100 scale (0 no effect, 100 complete control)
In short: as §1

oat, wild [6] = test: Test C preemergence; format: in vivo, Avena fatua; details: for Oat, Wild plant response rating: preemergence, 0 to 100 scale (0 no effect, 100 complete control)
In short: as §1

pigweed, palmer [7] = test: Test C preemergence; format: in vivo, Amaranthus palmeri; details: for Pigweed, Palmer plant response rating: preemergence, 0 to 100 scale (0 no effect, 100 complete control)
In short: as §1

ragweed [8] = test: Test C preemergence; format: in vivo, Ambrosia artemisiifolia; details: for Ragweed plant response rating: preemergence, 0 to 100 scale (0 no effect, 100 complete control)
In short: as §1

ryegrass, Italian [9] = test: Test C preemergence; format: in vivo, Lolium multiflorum; details: for Ryegrass, Italian plant response rating: preemergence, 0 to 100 scale (0 no effect, 100 complete control)
In short: as §1

soybean [10] = test: Test C preemergence; format: in vivo, Glycine max; details: for Soybean plant response rating: preemergence, 0 to 100 scale (0 no effect, 100 complete control)
In short: as §1

wheat [11] = test: Test C preemergence; format: in vivo, Triticum aestivum; details: for Wheat plant response rating: preemergence, 0 to 100 scale (0 no effect, 100 complete control)
In short: as §1

barnyardgrass [12] = test: Test C postemergence; format: in vivo, Echinochloa crusgalli; details: 10 days, 0 to 100 scale (0 no effect, 100 complete control)
In short: as §1

blackgrass [13] = test: Test C postemergence; format: in vivo, Alopecurus myosuroides; details: 10 days, 0 to 100 scale (0 no effect, 100 complete control)
In short: as §1

corn [14] = test: Test C postemergence; format: in vivo, Zea mays; details: 10 days, 0 to 100 scale (0 no effect, 100 complete control)
In short: as §1

foxtail, giant [15] = test: Test C postemergence; format: in vivo, Setaria faberi; details: 10 days, 0 to 100 scale (0 no effect, 100 complete control)
In short: as §1

kochia [16] = test: Test C postemergence; format: in vivo, Bassia scoparia; details: 10 days, 0 to 100 scale (0 no effect, 100 complete control)
In short: as §1

oat, wild [17] = test: Test C postemergence; format: in vivo, Avena fatua; details: 10 days, 0 to 100 scale (0 no effect, 100 complete control)
In short: as §1

pigweed, palmer [18] = test: Test C postemergence; format: in vivo, Amaranthus palmeri; details: 10 days, 0 to 100 scale (0 no effect, 100 complete control)
In short: as §1

ragweed [19] = test: Test C postemergence; format: in vivo, Ambrosia artemisiifolia; details: 10 days, 0 to 100 scale (0 no effect, 100 complete control)
In short: as §1

ryegrass, Italian [20] = test: Test C postemergence; format: in vivo, Lolium multiflorum; details: 10 days, 0 to 100 scale (0 no effect, 100 complete control)
In short: as §1

soybean [21] = test: Test C postemergence; format: in vivo, Glycine max; details: 10 days, 0 to 100 scale (0 no effect, 100 complete control)
In short: as §1

wheat [22] = test: Test C postemergence; format: in vivo, Triticum aestivum; details: 10 days, 0 to 100 scale (0 no effect, 100 complete control)
In short: as §1

galium = test: Test C postemergence; format: in vivo, Galium aparine; details: 10 days, 0 to 100 scale (0 no effect, 100 complete control)
In short: as §1

horseweed = test: Test C postemergence; format: in vivo, Erigeron canadensis; details: 10 days, 0 to 100 scale (0 no effect, 100 complete control)
In short: as §1

barnyardgrass [23] = test: Test D flooded paddy test; format: in vivo, Echinochloa crus-galli; details: 250 g ai/ha, applied to paddy water, visual rating after 13 to 14 days, scale 0 to 100 (0 no effect, 100 complete control)
In short: (§2)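 2-leaf plants; flood 3 cm above soil; compound dosed into paddy water; greenhouse 13–14 d; visual rating vs controls, 0–100 (100 = complete control); dash = not tested.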

ducksalad = test: Test D flooded paddy test; format: in vivo, Heteranthera limosa; details: 250 g ai/ha, applied to paddy water, visual rating after 13 to 14 days, scale 0 to 100 (0 no effect, 100 complete control)
In short: as §2

rice = test: Test D flooded paddy test; format: in vivo, Oryza sativa; details: 250 g ai/ha, applied to paddy water, visual rating after 13 to 14 days, scale 0 to 100 (0 no effect, 100 complete control)
In short: as §2

sedge, umbrella = test: Test D flooded paddy test; format: in vivo, Cyperus difformis; details: 250 g ai/ha, applied to paddy water, visual rating after 13 to 14 days, scale 0 to 100 (0 no effect, 100 complete control)
In short: as §2

[24] = Preemergence, 125 g ai/ha, 0 to 100 scale, 0 no effect, 100 complete control

CC(C)c1cc(C(=O)N2C[C@H](C)Oc3c(Cl)cccc32)cc(-n2cncn2)c1 [Compound 316]
Barnyardgrass plant response rating (barnyardgrass [1]; 500 g ai/ha): 90 | Barnyardgrass plant response rating (barnyardgrass [1]; Test C, 125 g ai/ha): 30 | Blackgrass plant response rating (blackgrass [2]; 500 g ai/ha): 90 | Blackgrass plant response rating (blackgrass [2]; Test C, 125 g ai/ha): 50 | Corn plant response rating (corn [3]; 500 g ai/ha): 40 | Corn plant response rating (corn [3]; Test C, 125 g ai/ha): 10 | Foxtail, Giant plant response rating (foxtail, giant [4]; 500 g ai/ha): 100 | Foxtail, Giant plant response rating (foxtail, giant [4]; Test C, 125 g ai/ha): 80 | Kochia plant response rating (kochia [5]; 500 g ai/ha): 0 | Kochia plant response rating (kochia [5]; Test C, 125 g ai/ha): 0 | Oat, Wild plant response rating (oat, wild [6]; 500 g ai/ha): 40 | Oat, Wild plant response rating (oat, wild [6]; Test C, 125 g ai/ha): 20 | Pigweed, Palmer plant response rating (pigweed, palmer [7]; 500 g ai/ha): 90 | Pigweed, Palmer plant response rating (pigweed, palmer [7]; Test C, 125 g ai/ha): 60 | Ragweed plant response rating (ragweed [8]; 500 g ai/ha): 0 | Ragweed plant response rating (ragweed [8]; Test C, 125 g ai/ha): 0 | Ryegrass, Italian plant response rating (ryegrass, Italian [9]; 500 g ai/ha): 90 | Ryegrass, Italian plant response rating (ryegrass, Italian [9]; Test C, 125 g ai/ha): 70 | Soybean plant response rating (soybean [10]; 500 g ai/ha): 50 | Soybean plant response rating (soybean [10]; Test C, 125 g ai/ha): 0 | Wheat plant response rating (wheat [11]; 500 g ai/ha): 20 | Wheat plant response rating (wheat [11]; Test C, 125 g ai/ha): 0 | Plant response rating, Barnyardgrass (barnyardgrass [12]; 500 g ai/ha, postemergence): 50 | Plant response rating, Barnyardgrass (barnyardgrass [12]; Postemergence, 125 g ai/ha): 10 | Plant response rating, Blackgrass (blackgrass [13]; 500 g ai/ha, postemergence): 70 | Plant response rating, Blackgrass (blackgrass [13]; Postemergence, 125 g ai/ha): 50 | Plant response rating, Corn (corn [14]; 500 g ai/ha, postemergence): 70 | Plant response rating, Corn (corn [14]; Postemergence, 125 g ai/ha): 20 | Plant response rating, Foxtail, Giant (foxtail, giant [15]; 500 g ai/ha, postemergence): 90 | Plant response rating, Foxtail, Giant (foxtail, giant [15]; Postemergence, 125 g ai/ha): 10 | Plant response rating, Kochia (kochia [16]; 500 g ai/ha, postemergence): 80 | Plant response rating, Kochia (kochia [16]; Postemergence, 125 g ai/ha): 30 | Plant response rating, Oat, Wild (oat, wild [17]; 500 g ai/ha, postemergence): 20 | Plant response rating, Oat, Wild (oat, wild [17]; Postemergence, 125 g ai/ha): 0 | Plant response rating, Pigweed, Palmer (pigweed, palmer [18]; 500 g ai/ha, postemergence): 60 | Plant response rating, Pigweed, Palmer (pigweed, palmer [18]; Postemergence, 125 g ai/ha): 30 | Plant response rating, Ragweed (ragweed [19]; 500 g ai/ha, postemergence): 0 | Plant response rating, Ragweed (ragweed [19]; Postemergence, 125 g ai/ha): 0 | Plant response rating, Ryegrass, Italian (ryegrass, Italian [20]; 500 g ai/ha, postemergence): 80 | Plant response rating, Ryegrass, Italian (ryegrass, Italian [20]; Postemergence, 125 g ai/ha): 30 | Plant response rating, Soybean (soybean [21]; 500 g ai/ha, postemergence): 100 | Plant response rating, Soybean (soybean [21]; Postemergence, 125 g ai/ha): 100 | Plant response rating, Wheat (wheat [22]; 500 g ai/ha, postemergence): 20 | Plant response rating, Wheat (wheat [22]; Postemergence, 125 g ai/ha): 10 | Plant response rating, Galium (galium; 500 g ai/ha, postemergence): 90 | Plant response rating, Galium (galium; Postemergence, 125 g ai/ha): 40 | Plant response rating, Horseweed (horseweed; 500 g ai/ha, postemergence): 0 | Plant response rating, Horseweed (horseweed; Postemergence, 125 g ai/ha): 0 | Plant response rating, Barnyardgrass (Flood) (barnyardgrass [23]): 0 | Plant response rating, Ducksalad (Flood) (ducksalad): 0 | Plant response rating, Rice (Flood) (rice): 0 | Plant response rating, Sedge, Umbrella (Flood) (sedge, umbrella): 0

C=C(C)c1cc(C(=O)N2C[C@H](C)Oc3c(Cl)cccc32)cc(-n2cncn2)c1 [Compound 317]
Barnyardgrass plant response rating (barnyardgrass [1]; 500 g ai/ha): 50 | Plant response rating, Barnyardgrass (barnyardgrass [1]; [24]): 0 | Blackgrass plant response rating (blackgrass [2]; 500 g ai/ha): 50 | Plant response rating, Blackgrass (blackgrass [2]; [24]): 0 | Corn plant response rating (corn [3]; 500 g ai/ha): 10 | Plant response rating, Corn (corn [3]; [24]): 0 | Foxtail, Giant plant response rating (foxtail, giant [4]; 500 g ai/ha): 90 | Plant response rating, Foxtail, Giant (foxtail, giant [4]; [24]): 10 | Kochia plant response rating (kochia [5]; 500 g ai/ha): 0 | Plant response rating, Kochia (kochia [5]; [24]): 0 | Oat, Wild plant response rating (oat, wild [6]; 500 g ai/ha): 40 | Plant response rating, Oat, Wild (oat, wild [6]; [24]): 0 | Pigweed, Palmer plant response rating (pigweed, palmer [7]; 500 g ai/ha): 90 | Plant response rating, Pigweed, Palmer (pigweed, palmer [7]; [24]): 20 | Ragweed plant response rating (ragweed [8]; 500 g ai/ha): 0 | Plant response rating, Ragweed (ragweed [8]; [24]): 0 | Ryegrass, Italian plant response rating (ryegrass, Italian [9]; 500 g ai/ha): 60 | Plant response rating, Ryegrass, Italian (ryegrass, Italian [9]; [24]): 40 | Soybean plant response rating (soybean [10]; 500 g ai/ha): 0 | Plant response rating, Soybean (soybean [10]; [24]): 0 | Wheat plant response rating (wheat [11]; 500 g ai/ha): 0 | Plant response rating, Wheat (wheat [11]; [24]): 0 | Plant response rating, Barnyardgrass (barnyardgrass [12]; 500 g ai/ha, postemergence): 70 | Plant response rating, Barnyardgrass (barnyardgrass [12]; Postemergence, 125 g ai/ha): 10 | Plant response rating, Blackgrass (blackgrass [13]; 500 g ai/ha, postemergence): 60 | Plant response rating, Blackgrass (blackgrass [13]; Postemergence, 125 g ai/ha): 0 | Plant response rating, Corn (corn [14]; 500 g ai/ha, postemergence): 40 | Plant response rating, Corn (corn [14]; Postemergence, 125 g ai/ha): 10 | Plant response rating, Foxtail, Giant (foxtail, giant [15]; 500 g ai/ha, postemergence): 70 | Plant response rating, Foxtail, Giant (foxtail, giant [15]; Postemergence, 125 g ai/ha): 10 | Plant response rating, Kochia (kochia [16]; 500 g ai/ha, postemergence): 70 | Plant response rating, Kochia (kochia [16]; Postemergence, 125 g ai/ha): 20 | Plant response rating, Oat, Wild (oat, wild [17]; 500 g ai/ha, postemergence): 30 | Plant response rating, Oat, Wild (oat, wild [17]; Postemergence, 125 g ai/ha): 0 | Plant response rating, Pigweed, Palmer (pigweed, palmer [18]; 500 g ai/ha, postemergence): 50 | Plant response rating, Pigweed, Palmer (pigweed, palmer [18]; Postemergence, 125 g ai/ha): 10 | Plant response rating, Ragweed (ragweed [19]; 500 g ai/ha, postemergence): 0 | Plant response rating, Ragweed (ragweed [19]; Postemergence, 125 g ai/ha): 0 | Plant response rating, Ryegrass, Italian (ryegrass, Italian [20]; 500 g ai/ha, postemergence): 40 | Plant response rating, Ryegrass, Italian (ryegrass, Italian [20]; Postemergence, 125 g ai/ha): 0 | Plant response rating, Soybean (soybean [21]; 500 g ai/ha, postemergence): 100 | Plant response rating, Soybean (soybean [21]; Postemergence, 125 g ai/ha): 70 | Plant response rating, Wheat (wheat [22]; 500 g ai/ha, postemergence): 20 | Plant response rating, Wheat (wheat [22]; Postemergence, 125 g ai/ha): 10 | Plant response rating, Galium (galium; 500 g ai/ha, postemergence): 70 | Plant response rating, Galium (galium; Postemergence, 125 g ai/ha): 50 | Plant response rating, Horseweed (horseweed; 500 g ai/ha, postemergence): 0 | Plant response rating, Horseweed (horseweed; Postemergence, 125 g ai/ha): 0 | Plant response rating, Barnyardgrass (Flood) (barnyardgrass [23]): 0 | Plant response rating, Ducksalad (Flood) (ducksalad): 0 | Plant response rating, Rice (Flood) (rice): 0 | Plant response rating, Sedge, Umbrella (Flood) (sedge, umbrella): 0
